Laboratory results published in patent US5569591A, “Analytical or monitoring apparatus and method” (priority 1990, dated 1996).

Assays:
[1] = target: T1, H+-ATPase in the plasma membrane of Saccharomyces cerevisiae (Saccharomyces cerevisiae, UniProt P05030); format: cell-based; design: endogenous in cells; host or cells: intact S. cerevisiae cells in suspension
Experimental: The spectrometer 10 comprises two electrochemical cells 11, 12. Cell 11 is a test cell containing a sample of the biological system whose nonlinear dielectric properties are being studied. In this example the biological system comprises a system comprising a suspension of S. cerevisiae. The cell concentration was approximately 50 mg dry wt. ml^-1 in a medium of 20 mM KH2 PO4, 30 mM KCl, 1 mM MgCl2 pH 6.5. Tests were carried out within four hours of preparing the suspension. Cell 12 is a reference cell comprising the supernatant of the test suspension, the conductivity of which was adjusted with distilled water to compensate for the volume fraction of cells present in the sample, to be identical to that of the sample at the frequency of interest. The cells 11, 12 were connected to a sinusoidal oscillator 13, via a Data Translation Analog to Digital converter, to an 80386 microcomputer 14.
The sample cell suspension was pipetted into the electrode cell 11 (FIG. 1), the test waveform applied to the (outer) current electrodes, and the data logged from the (inner) voltage electrodes at a sampling frequency (which was typically at 25 times the frequency of the fundamental) and for a time specified by the operator. Time was specified in terms of a number of blocks, each block consisting of 512 samples. At the end of the time specified, the data were Fourier transformed as follows. […]

[2] = target: vanadate-resistant ATPase of a mutant strain of yeast (Saccharomyces cerevisiae, UniProt P05030); conditions: mutant strain with vanadate-resistant ATPase
Sequence of vanadate-resistant ATPase of a mutant strain of yeast (P05030 whole entry, change not shown): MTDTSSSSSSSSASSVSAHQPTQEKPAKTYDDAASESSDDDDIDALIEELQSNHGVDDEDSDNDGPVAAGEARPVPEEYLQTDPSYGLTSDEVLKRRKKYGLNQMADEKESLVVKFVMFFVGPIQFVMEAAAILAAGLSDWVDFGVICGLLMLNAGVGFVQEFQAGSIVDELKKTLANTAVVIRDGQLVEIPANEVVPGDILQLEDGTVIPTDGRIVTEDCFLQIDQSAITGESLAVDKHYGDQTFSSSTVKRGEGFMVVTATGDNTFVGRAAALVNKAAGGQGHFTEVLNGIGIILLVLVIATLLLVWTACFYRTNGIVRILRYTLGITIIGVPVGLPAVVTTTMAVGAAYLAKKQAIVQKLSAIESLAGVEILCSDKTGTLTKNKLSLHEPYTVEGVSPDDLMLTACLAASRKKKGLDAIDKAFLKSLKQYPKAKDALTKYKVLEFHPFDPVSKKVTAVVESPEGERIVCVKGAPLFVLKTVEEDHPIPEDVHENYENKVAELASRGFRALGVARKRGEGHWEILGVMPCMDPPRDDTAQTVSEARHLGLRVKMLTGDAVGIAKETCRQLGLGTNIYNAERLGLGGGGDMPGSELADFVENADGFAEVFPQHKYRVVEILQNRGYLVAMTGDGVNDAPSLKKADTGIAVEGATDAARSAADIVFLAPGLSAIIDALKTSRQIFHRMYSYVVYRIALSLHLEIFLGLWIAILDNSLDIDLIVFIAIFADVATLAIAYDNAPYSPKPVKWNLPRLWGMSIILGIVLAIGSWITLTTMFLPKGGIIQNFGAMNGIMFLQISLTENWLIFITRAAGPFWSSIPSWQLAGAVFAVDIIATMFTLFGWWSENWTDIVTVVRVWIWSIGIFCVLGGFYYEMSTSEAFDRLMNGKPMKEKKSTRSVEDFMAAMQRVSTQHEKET

[3] = target: T1, H+-ATPase in the plasma membrane of Saccharomyces cerevisiae; conditions: cells metabolising added D-glucose
Experimental: As described above, a 3rd harmonic was reproducibly observed with resting cell suspensions of S. cerevisiae. This could be ascribed to the presence of the H^+ -ATPase in this organism, and should be expected to reflect a situation in which the enzyme was at static head. An experiment to determine how this behaviour might be modified when the enzyme was driven away from static head and was able (or expected) to do work was carried out. Resting cells were taken, their (usual) non-linear dielectric spectrum recorded, and a metabolisable carbon source (D-glucose) added.

T1 sequence (P05030 whole entry): as the sequence (P05030 whole entry, change not shown) above

Row | Compound | generation of harmonics ([1]; 0.2 pmol/mg dry wt of cells) | generation of the 3rd harmonic ([1]; 1 mM sodium metavanadate, FIG. 12) | generation of harmonics in the presence of vanadate [2] | even (2nd and 4th) harmonics in the presence of vanadate [3]
1 | C(=NC(c1ccccc1)c1ccccc1)=NC(c1ccccc1)c1ccccc1 [dibenzhydryl carbodiimide] | completely abolished | – | – | –
2 | sodium metavanadate | – | essentially completely abolished | vanadate resistant | vanadate-sensitive
